Measurements from patent publication US20030190325A1, “Novel peroxiredoxin defense system from mycobacterium tuberculosis” (priority 2002, published 2003).
Where two headings read alike, the source gives them in different places.

Tests used:
Lpd, SucB, AhpD = target: T1, Lpd, SucB, AhpD (Mycobacterium tuberculosis, UniProt P9WHH9+P9WIS7+P9WQB5); test: DTNB screening assay (Lpd/SucB/AhpD protein mixture); assay type: biochemical; conditions: for Target: which of the 3 enzymes (AhpD, Lpd, SucB) is inhibited, and mode of inhibition
T1 construct: Lpd and SucB ORFs were amplified by PCR from M. tuberculosis H37Rv genomic DNA; The AhpD open reading frame (ORF) was amplified by PCR with engineered 5′ NdeI and 3′ NheI sites and cloned into pET11c; made in house; host or cells: E. coli BL21(DE3), pET11c
T1 sequence (P9WHH9 1-464): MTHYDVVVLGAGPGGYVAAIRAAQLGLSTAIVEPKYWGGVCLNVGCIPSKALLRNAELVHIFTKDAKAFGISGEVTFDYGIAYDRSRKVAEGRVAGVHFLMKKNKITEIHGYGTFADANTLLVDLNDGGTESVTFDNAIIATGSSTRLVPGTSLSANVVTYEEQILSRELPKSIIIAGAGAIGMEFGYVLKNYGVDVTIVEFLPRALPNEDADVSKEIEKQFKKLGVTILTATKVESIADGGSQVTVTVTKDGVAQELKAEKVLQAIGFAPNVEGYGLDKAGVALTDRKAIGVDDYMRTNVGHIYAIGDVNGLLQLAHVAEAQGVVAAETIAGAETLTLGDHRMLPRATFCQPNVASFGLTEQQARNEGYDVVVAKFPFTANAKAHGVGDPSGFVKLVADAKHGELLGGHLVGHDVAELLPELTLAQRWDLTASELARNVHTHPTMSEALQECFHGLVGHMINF
T1 sequence (P9WIS7 1-553): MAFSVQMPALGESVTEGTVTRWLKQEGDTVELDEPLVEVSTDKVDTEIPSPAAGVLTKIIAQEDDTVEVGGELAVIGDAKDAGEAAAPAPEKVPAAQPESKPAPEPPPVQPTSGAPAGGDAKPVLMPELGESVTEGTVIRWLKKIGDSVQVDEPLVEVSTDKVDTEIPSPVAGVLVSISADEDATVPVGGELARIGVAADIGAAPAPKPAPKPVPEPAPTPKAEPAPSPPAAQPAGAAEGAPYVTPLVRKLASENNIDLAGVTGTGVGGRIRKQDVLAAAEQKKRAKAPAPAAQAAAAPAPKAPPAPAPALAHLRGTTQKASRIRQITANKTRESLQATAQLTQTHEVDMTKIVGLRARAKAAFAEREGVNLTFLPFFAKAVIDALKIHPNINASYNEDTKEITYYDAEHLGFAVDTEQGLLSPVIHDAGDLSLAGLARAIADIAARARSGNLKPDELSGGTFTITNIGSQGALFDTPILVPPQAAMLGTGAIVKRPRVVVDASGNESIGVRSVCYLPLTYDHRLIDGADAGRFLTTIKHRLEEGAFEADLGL
T1 sequence (P9WQB5 1-177): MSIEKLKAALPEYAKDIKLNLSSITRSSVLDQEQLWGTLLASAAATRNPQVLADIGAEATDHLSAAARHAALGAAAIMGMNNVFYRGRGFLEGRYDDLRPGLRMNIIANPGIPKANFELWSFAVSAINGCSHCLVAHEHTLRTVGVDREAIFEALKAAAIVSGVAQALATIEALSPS
Procedure: The screen was performed in Falcon Microtest 384-well 30 μl assay plates using the DTNB (5,5′-dithiobis-(2-nitrobenzoic acid)) assay.
The protein mixture (200 nM Lpd, 350 nM SucB, 36 nM AhpD) was dispensed into each well in 10 μl using a multi-channel pump dispenser. Compounds were added to the protein mix by a single dip (1 nl) with a pin-transfer robot. Plates with the protein mix and added compounds were incubated on a shaker for 30 min at room temperature. The concentration of compounds during incubation was 50 μM. Reaction mixture (200 μM NADH, 150 μM DTNB in 100 mM potassium phosphate, pH 7.0, 2 mM EDTA) was added to each well in 10 μl after pre-incubation and the plate was read at 405 nm for “time 0 min” values. Plates were incubated on a shaker for 30 min at room temperature to complete the reaction and were read at 405 nm for “time 30 min.” “Time 0 min” values were subtracted from “time 30 min” values and were taken as an end-point value for the assay. Control wells contained only protein and reaction mixtures without any compounds added and were taken as 100% activity values. The final concentrations of all components during the reaction were as follows: Lpd, 100 nM; SucB, 175 nM; AhpD, 18 nM; NADH, 100 μM; DTNB, 75 μM; potassium phosphate, 50 mM; EDTA, 1 mM; compounds, 25 μM.

AhpD = target: T2, AhpD (Mycobacterium tuberculosis, UniProt P9WQB5); test: Inhibition constant for the enzyme identified as target: AhpD; assay type: biochemical
T2 construct: The AhpD open reading frame (ORF) was amplified by PCR with engineered 5′ NdeI and 3′ NheI sites and cloned into pET11c; made in house; host or cells: E. coli BL21(DE3), pET11c
T2 sequence (P9WQB5 1-177): T1 sequence (P9WQB5 1-177)

Row | Structure (SMILES) | IC50 (Lpd, SucB, AhpD) [µM] | Target (Lpd, SucB, AhpD) | IC50 (Lpd, SucB, AhpD; DTNB assay, 100 nM Lpd, 175 nM SucB, 18 nM AhpD, 100 μM NADH, 75 μM DTNB, pH 7.0, read-out: IC50) [µM] | Ki (AhpD) [µM]
1 | O=C(O)CCN1C(=O)/C(=C\c2ccc(-c3cccc(C(F)(F)F)c3)o2)SC1=S [2556-0286] | 4.4 | SucB (Com- pet Inhib.) |  | 
2 | O=C(O)CN1C(=O)/C(=C\c2ccc(-c3cccc(Cl)c3Cl)o2)SC1=S [3229-2113] | 8.2 | SucB (Com- pet Inhib.) |  | 
3 | O=C(O)c1ccc(N2C(=O)/C(=C/c3ccc(-c4ccc(Br)cc4)o3)C=C2c2ccccc2)cc1 [2150-0146] |  |  | 4.2 | 
4 | Cc1cc(C)cc(/N=C2/NC(=O)/C(=C\c3cc(Br)c(O)c([N+](=O)O)c3)S2)c1 [2368-0687] | 10.5 | AhpD (Com- pet Inhib.) |  | 5
